Drawing on patent US20140037742A1, “ALGINATE MICROPARTICLES AND METHODS OF USING THE SAME” (priority 2012, published 2014), this text covers zone of inhibition for one compound.

For the test, the system named is Staphylococcus epidermidis. In words: Antimicrobial testing, zones of inhibition around saturated discs on agar plates. In kind it is cell-based. As to conditions: positive control disc, all test plates.

Procedure: Each disc was saturated with different test materials and zones of inhibition were measured after plates were incubated for 24 and 48 hours.
The synthesized microparticles were also tested for their antimicrobial activity against Staphylococcus epidermidis, a substitute for the pathogenic Staphylococcus aureus.

On to `[H]/N=C(/N)N[C@H]1[C@H](O)[C@@H](O)[C@H](O[C@@H]2O[C@@H](C)[C@](O)(C=O)[C@H]2O[C@@H]2O[C@@H](CO)[C@H](O)[C@@H](O)[C@@H]2NC)[C@@H](N/C(N)=N\[H])[C@@H]1O` [Streptomycin], for which the zone of inhibition entry is reported as “large, consistent zone of inhibition”.
